The text below walks through data of ChEMBL document CHEMBL5230119, “Development of differentiation modulators and targeted agents for treating neuroblastoma” (Eur J Med Chem, 2020).

The nature of test [1]: Synergistic antiproliferative activity against MYCN amplified human Neuroblastoma cell in presence of OTX-015. Type of test: functional, cell-based.
A short description of test [2]: Synergistic antiproliferative activity against MYCN amplified human Neuroblastoma cell in presence of JQ1.
The subject of the next test is IMR-32. As to the kind of experiment: Antiproliferative activity against human IMR-32 cells assessed as cell growth inhibition. It counts as functional, cell-based.

pIC50: −log10 of the molar value.

Take `Cc1sc2c(c1C)C(c1ccc(Cl)cc1)=N[C@@H](CC(=O)NC(C)(C)C)c1nnc(C)n1-2`: in test [1], the pIC50 was 5.83.
Consider `Cc1sc2c(c1C)C(c1ccc(Cl)cc1)=N[C@@H](CC(=O)Nc1ccc(O)cc1)c1nnc(C)n1-2` [BIRABRESIB], for which the negative-log IC50 (pIC50) in test [2] was 6.08.
For `O=C(c1ccc(F)c(F)c1Nc1ccc(I)cc1F)N1CC(O)([C@@H]2CCCCN2)C1` [COBIMETINIB], the negative logarithm of the IC50 (pIC50) with IMR-32 was 7.15.
